How the values were obtained:
[1] = test system: human cervical tumor cell line HeLa (ATCC CCL-2); test: SAC-Formation - Nocodazole-Induced Assay; format: cell-based; settings: 24 h, HeLa cells, nocodazole 0.1 μg/ml together with test compound, decrease of mitotic cells (phospho-histone H3 Ser10)
In short: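 HeLa cells, plated overnight, were treated 24 h at 37 °C with nocodazole (0.1 μg/ml final) plus test compound (0.005–20 μM, 0.5% DMSO) added at the same time. After fixation, anti-phospho-histone H3 Ser10 and Hoechst staining gave the mitotic cell fraction by imaging. Values came from four-parameter Hill fits.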

[2] = test system: human cervical tumor cell line HeLa (ATCC CCL-2); test: SAC-Formation - Paclitaxel-Induced Assay; format: cell-based; settings: 24 h, HeLa cells, paclitaxel 0.05 μM, test range 0.005 μM-20 μM, read-out: IC50 [mol/l] SAC-Formation - Paclitaxel-Induced Assay
In short: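 HeLa cells incubated overnight at 37° C, then given paclitaxel (0.05 μM final) plus test compound (0.005–20 μM, 0.5% DMSO) together for 24 h at 37° C. Fixed cells stained for phospho-histone H3 Ser10 (mitotic cells) and Hoechst 33342 (cell count); imaging-derived mitotic index fitted by four-parameter Hill equation.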

| SMILES | IC50 ([1]; Homo sapiens, HeLa) | IC50 ([2]; Homo sapiens, HeLa) | IC50 [1] | IC50 [2] |
| --- | --- | --- | --- | --- |
| Cc1nsc(Nc2cncc(C(F)(F)F)n2)c1C(=O)Nc1ccc(OC2CCN(C(=O)OC(C)(C)C)CC2)nc1 [Example 12, tert-Butyl 4-[(5-{[(3-methyl-5-{[6-(trifluoromethyl)pyrazin-2-yl]amino}-1,2-thiazol-4-yl)carbonyl]amino}pyridin-2-yl)oxy]piperidine-1-carboxylate] | 220 nM | 230 nM | – | – |
| Cc1noc(-c2cccc(NC(=O)c3c(C)nsc3Nc3cnc4ccccc4n3)c2)n1 [Example 106, 3-Methyl-N-[3-(3-methyl-1,2,4-oxadiazol-5-yl)phenyl]-5-(quinoxalin-2-ylamino)-1,2-thiazole-4-carboxamide] | 140 nM | 130 nM | – | – |
| Cc1nsc(Nc2ccc(C#N)cn2)c1C(=O)Nc1ccc(Oc2cccc(C(F)(F)F)c2)nc1 [Example 118, 5-[(5-Cyanopyridin-2-yl)amino]-3-methyl-N-{6-[3-(trifluoromethyl)phenoxy]pyridin-3-yl}-1,2-thiazole-4-carboxamide] | 110 nM | 53 nM | – | – |
| Cc1nsc(Nc2cnc(C(F)(F)F)cn2)c1C(=O)Nc1ccc(OCC2CCN(C(=O)OC(C)(C)C)C2)nc1 (centres unmarked) [Example 109, tert-Butyl 3-{[(5-{[(3-methyl-5-{[5-(trifluoromethyl)pyrazin-2-yl]amino}-1,2-thiazol-4-yl)carbonyl]amino}pyridin-2-yl)oxy]methyl}pyrrolidine-1-carboxylate] | 7 nM | 37 nM | – | – |
| Cc1nsc(Nc2cnc3ccccc3n2)c1C(=O)Nc1cccc(C(=O)N[C@H](C(=O)O)[C@@H](C)O)c1 [Example 105, N-[3-({[3-methyl-5-(quinoxalin-2-ylamino)-1,2-thiazol-4-yl]carbonyl}amino)-benzoyl]threonine] | 20000 nM | 20000 nM | – | – |
| Cc1nsc(Nc2cnc(C(F)(F)F)cn2)c1C(=O)Nc1ccc(O[C@H]2CCN(CCC(F)(F)F)C[C@H]2F)nc1 [Example 146, N-(6-{[(3R,4S)-3-fluoro-1-(3,3,3-trifluoropropyl)piperidin-4-yl]oxy}pyridin-3-yl)-3-methyl-5-{[5-(trifluoromethyl)pyrazin-2-yl]amino}-1,2-thiazole-4-carboxamide] | 63 nM | 110 nM | – | – |
| Cc1nsc(Nc2cnc3ccccc3n2)c1C(=O)Nc1cccc(C(=O)N2CCCC2)c1 [Example 113, 3-Methyl-N-[3-(pyrrolidin-1-ylcarbonyl)phenyl]-5-(quinoxalin-2-ylamino)-1,2-thiazole-4-carboxamide] | 210 nM | 1700 nM | – | – |
| Cc1nsc(Nc2cnc(C(F)(F)F)cn2)c1C(=O)Nc1ccc(O[C@H]2CCN(CC(F)(F)F)C[C@H]2F)nc1 [Example 145, N-(6-{[(3R,4S)-3-fluoro-1-(2,2,2-trifluoroethyl)piperidin-4-yl]oxy}pyridin-3-yl)-3-methyl-5-{[5-(trifluoromethyl)pyrazin-2-yl]amino}-1,2-thiazole-4-carboxamide] | 13 nM | 37 nM | – | – |
| Cc1nsc(Nc2cnc3ccccc3n2)c1C(=O)Nc1cccc(C(=O)N2CCNCC2)c1 [Example 101, 3-Methyl-N-[3-(piperazin-1-ylcarbonyl)phenyl]-5-(quinoxalin-2-ylamino)-1,2-thiazole-4-carboxamide] | 1800 nM | 20000 nM | – | – |
| Cc1nsc(Nc2cnc(C(F)(F)F)cn2)c1C(=O)Nc1ccc(O[C@@H]2CCN(CC(F)(F)F)C[C@@H]2F)nc1 [Example 138, N-(6-{[(3S,4R)-3-fluoro-1-(2,2,2-trifluoroethyl)piperidin-4-yl]oxy}pyridin-3-yl)-3-methyl-5-{[5-(trifluoromethyl)pyrazin-2-yl]amino}-1,2-thiazole-4-carboxamide] | 110 nM | 170 nM | – | – |
| Cc1nsc(Nc2cnc(C(F)(F)F)cn2)c1C(=O)Nc1ccc(OCC2CCN(CCC(F)(F)F)C2)nc1 (centres unmarked) [Example 124, 3-methyl-5-{[5-(trifluoromethyl)pyrazin-2-yl]amino}-N-(6-{[1-(3,3,3-trifluoropropyl)pyrrolidin-3-yl]methoxy}pyridin-3-yl)-1,2-thiazole-4-carboxamide] | 24 nM | 38 nM | – | – |
| CCCN1CC[C@@H](Oc2ccc(NC(=O)c3c(C)nsc3Nc3cnc(C(F)(F)F)cn3)cn2)[C@@H](F)C1 [Example 140, N-(6-{[(3S,4R)-3-fluoro-1-propylpiperidin-4-yl]oxy}pyridin-3-yl)-3-methyl-5-{[5-(trifluoromethyl)pyrazin-2-yl]amino}-1,2-thiazole-4-carboxamide] | 60 nM | 110 nM | – | – |

Next, values leading:

| IC50 ([1]; Homo sapiens, HeLa) | IC50 ([2]; Homo sapiens, HeLa) | IC50 [1] | IC50 [2] | SMILES |
| --- | --- | --- | --- | --- |
| 1700 nM | 900 nM | – | – | Cc1nsc(Nc2cnc3ccccc3n2)c1C(=O)Nc1ccc(C(=O)N2CCN(CC(F)F)CC2)cc1 [Example 157, N-(4-{[4-(2,2-difluoroethyl)piperazin-1-yl]carbonyl}phenyl)-3-methyl-5-(quinoxalin-2-ylamino)-1,2-thiazole-4-carboxamide] |
| 2000 nM | 3600 nM | – | – | Cc1nsc(Nc2cnc(C(F)(F)F)cn2)c1C(=O)Nc1ccc(OC2CCN(C(C)C)CC2)nc1 [Example 160, N-{6-[(1-isopropylpiperidin-4-yl)oxy]pyridin-3-yl}-3-methyl-5-{[5-(trifluoromethyl)pyrazin-2-yl]amino}-1,2-thiazole-4-carboxamide] |
| 160 nM | 250 nM | – | – | Cc1nsc(Nc2ccc(C#N)cn2)c1C(=O)Nc1cccc(S(C)(=O)=O)c1 [Example 150, 5-[(5-cyanopyridin-2-yl)amino]-3-methyl-N-[3-(methylsulfonyl)phenyl]-1,2-thiazole-4-carboxamide] |
| 17 nM | 75 nM | – | – | Cc1nsc(Nc2cncc(C(F)(F)F)n2)c1C(=O)Nc1ccc(F)c(OC2CCN(C(=O)OC(C)(C)C)CC2)c1 [Example 168, tert-butyl 4-(2-fluoro-5-{[(3-methyl-5-{[6-(trifluoromethyl)pyrazin-2-yl]amino}-1,2-thiazol-4-yl)carbonyl]amino}phenoxy)piperidine-1-carboxylate] |
| – | – | 40 nM | 88 nM | Cc1nsc(Nc2cnc(C(F)(F)F)cn2)c1C(=O)Nc1ccc(OC[C@@H]2CCCN(CCC(F)(F)F)C2)nc1 [Example 422, 3-Methyl-5-{[5-(trifluoromethyl)pyrazin-2-yl]amino}-N-(6-{[(3R)-1-(3,3,3-trifluoropropyl)piperidin-3-yl]methoxy}pyridin-3-yl)-1,2-thiazole-4-carboxamide] |
| 710 nM | 1200 nM | – | – | Cc1nsc(Nc2cnc(C(F)(F)F)cn2)c1C(=O)Nc1ccc(C(=O)N2CCN(CC(F)F)CC2)cc1 [Example 154, N-(4-{[4-(2,2-difluoroethyl)piperazin-1-yl]carbonyl}phenyl)-3-methyl-5-{[5-(trifluoromethyl)pyrazin-2-yl]amino}-1,2-thiazole-4-carboxamide] |
| 470 nM | 1600 nM | – | – | Cc1nsc(Nc2cnc3cc(F)ccc3n2)c1C(=O)Nc1ccc(S(N)(=O)=O)cc1 [Example 149, 5-[(6-fluoroquinoxalin-2-yl)amino]-3-methyl-N-(4-sulfamoylphenyl)-1,2-thiazole-4-carboxamide] |
| 61 nM | 39 nM | – | – | Cc1nsc(Nc2cnc(C(F)(F)F)cn2)c1C(=O)Nc1ccc(OC2CCN(CC(F)(F)F)CC2)c(F)c1 [Example 163, N-(3-fluoro-4-{[1-(2,2,2-trifluoroethyl)piperidin-4-yl]oxy}phenyl)-3-methyl-5-{[5-(trifluoromethyl)pyrazin-2-yl]amino}-1,2-thiazole-4-carboxamide] |
| 1700 nM | 20000 nM | – | – | Cc1nsc(Nc2cncc(C(F)(F)F)n2)c1C(=O)Nc1ccc(C(=O)NCCN2CCCC(F)C2)cc1 (centres unmarked) [Example 155, N-(4-{[2-(3-fluoropiperidin-1-yl)ethyl]carbamoyl}phenyl)-3-methyl-5-{[6-(trifluoromethyl)pyrazin-2-yl]amino}-1,2-thiazole-4-carboxamide] |
| 210 nM | 310 nM | – | – | CCCCN1CC[C@H](Oc2ccc(NC(=O)c3c(C)nsc3Nc3cnc(C(F)(F)F)cn3)cn2)[C@H](F)C1 [Example 148, N-(6-{[(3R,4S)-1-butyl-3-fluoropiperidin-4-yl]oxy}pyridin-3-yl)-3-methyl-5-{[5-(trifluoromethyl)pyrazin-2-yl]amino}-1,2-thiazole-4-carboxamide] |
